Data taken from ChEMBL document CHEMBL4622932, “Design, synthesis and biological evaluation of new Myo-inositol derivatives as potential RAS inhibitors” (Bioorg Med Chem Lett, 2020).

Key:
[1] = molecular target: GTPase KRas (Homo sapiens) (UniProt P01116); assay: Inhibition of KRAS in human MCF7 cells assessed as reduction in phosphorylated RAF-1 E1 protein level at 15 uM measured after 24 hrs by Western blot analysis relative to control; format: cell-based
MCF7 [2] = assay: Induction of apoptosis in human MCF7 cells assessed as necrotic cells at 25 uM measured after 48 hrs by annexinV-FITC/propidium iodide staining based flow cytometry (reference value: 0.08 %); format: functional
[3] = molecular target: GTPase KRas (Homo sapiens) (UniProt P01116); assay: Inhibition of KRAS in human MDA-MB-231 cells assessed as reduction in phosphorylated MEK1/2 at Ser217/221 residues protein level at 15 uM measured after 24 hrs by Western blot analysis relative to control; format: cell-based
[4] = molecular target: GTPase KRas (Homo sapiens) (UniProt P01116); assay: Inhibition of KRAS in human MDA-MB-231 cells assessed as reduction in phosphorylated RAF-1 E1 protein level at 15 uM measured after 24 hrs by Western blot analysis relative to control; format: cell-based
[5] = molecular target: GTPase KRas (Homo sapiens) (UniProt P01116); assay: Inhibition of KRAS in human MDA-MB-231 cells assessed as reduction in ERK1/2 137F5 protein level at 25 uM measured after 24 hrs by Western blot analysis relative to control; format: cell-based
[6] = molecular target: GTPase KRas (Homo sapiens) (UniProt P01116); assay: Inhibition of KRAS in human MCF7 cells assessed as reduction in phosphorylated MEK1/2 at Ser217/221 residues protein level at 35 uM measured after 24 hrs by Western blot analysis relative to control; format: cell-based
[7] = molecular target: GTPase KRas (Homo sapiens) (UniProt P01116); assay: Inhibition of KRAS in human MDA-MB-231 cells assessed as reduction in phosphorylated MEK1/2 at Ser217/221 residues protein level at 35 uM measured after 24 hrs by Western blot analysis relative to control; format: cell-based
[8] = molecular target: GTPase KRas (Homo sapiens) (UniProt P01116); assay: Inhibition of KRAS in human MDA-MB-231 cells assessed as reduction in Pan RAS protein level at 35 uM measured after 24 hrs by Western blot analysis relative to control; format: cell-based
MDA-MB-231 [9] = assay: Cell cycle arrest in human MDA-MB-231 cells assessed as accumulation at S phase at 25 uM measured after 48 hrs by propidium iodide/RNase staining based flow cytometry (reference value: 22.09 %); format: functional
[10] = molecular target: GTPase KRas (Homo sapiens) (UniProt P01116); assay: Inhibition of KRAS in human MCF7 cells assessed as reduction in ERK1/2 137F5 protein level at 35 uM measured after 24 hrs by Western blot analysis relative to control; format: cell-based
MCF7 [11] = assay: Induction of apoptosis in human MCF7 cells assessed as late apoptotic cells at 15 uM measured after 48 hrs by annexinV-FITC/propidium iodide staining based flow cytometry (reference value: 0.17 %); format: functional
MDA-MB-231 [12] = assay: Cell cycle arrest in human MDA-MB-231 cells assessed as accumulation at G1 phase at 25 uM measured after 48 hrs by propidium iodide/RNase staining based flow cytometry (reference value: 74.56 %); format: functional
MCF7 [13] = assay: Antiproliferative activity against human MCF7 cells reduction in cell viability measured after 48 hrs by MTT assay; format: functional, cell-based
[14] = molecular target: GTPase KRas (Homo sapiens) (UniProt P01116); assay: Inhibition of KRAS in human MDA-MB-231 cells assessed as reduction in ERK1/2 137F5 protein level at 35 uM measured after 24 hrs by Western blot analysis relative to control; format: cell-based
[15] = molecular target: GTPase KRas (Homo sapiens) (UniProt P01116); assay: Inhibition of KRAS in human MCF7 cells assessed as reduction in Pan RAS protein level at 35 uM measured after 24 hrs by Western blot analysis relative to control; format: cell-based
MDA-MB-231 [16] = assay: Induction of apoptosis in human MDA-MB-231 cells assessed as early apoptotic cells at 15 uM measured after 48 hrs by annexinV-FITC/propidium iodide staining based flow cytometry (reference value: 0.69 %); format: functional
[17] = molecular target: GTPase KRas (Homo sapiens) (UniProt P01116); assay: Inhibition of KRAS in human MCF7 cells assessed as reduction in Pan RAS protein level at 15 uM measured after 24 hrs by Western blot analysis relative to control; format: cell-based
[18] = molecular target: GTPase KRas (Homo sapiens) (UniProt P01116); assay: Inhibition of KRAS in human MCF7 cells assessed as reduction in phosphorylated MEK1/2 at Ser217/221 residues protein level at 15 uM measured after 24 hrs by Western blot analysis relative to control; format: cell-based
MCF7 [19] = assay: Induction of apoptosis in human MCF7 cells assessed as necrotic cells at 15 uM measured after 48 hrs by annexinV-FITC/propidium iodide staining based flow cytometry (reference value: 0.08 %); format: functional
[20] = molecular target: GTPase KRas (Homo sapiens) (UniProt P01116); assay: Inhibition of KRAS in human MCF7 cells assessed as reduction in MEK1/2 9G3 protein level at 35 uM measured after 24 hrs by Western blot analysis relative to control; format: cell-based
MDA-MB-231 [21] = assay: Induction of necrosis in human MDA-MB-231 cells; format: functional, cell-based
MDA-MB-231 [22] = assay: Antiproliferative activity against human MDA-MB-231 cells reduction in cell viability measured after 48 hrs by MTT assay; format: functional, cell-based
[23] = molecular target: GTPase KRas (Homo sapiens) (UniProt P01116); assay: Inhibition of KRAS in human MCF7 cells assessed as reduction in phosphorylated ERK1/2 at Thr185/Tyr187 residues protein level at 25 uM measured after 24 hrs by Western blot analysis relative to control; format: cell-based
[24] = molecular target: GTPase KRas (Homo sapiens) (UniProt P01116); assay: Inhibition of KRAS in human MCF7 cells assessed as reduction in phosphorylated ERK1/2 at Thr185/Tyr187 residues protein level at 15 uM measured after 24 hrs by Western blot analysis relative to control; format: cell-based
MDA-MB-231 [25] = assay: Cell cycle arrest in human MDA-MB-231 cells assessed as accumulation at S phase at 15 uM measured after 48 hrs by propidium iodide/RNase staining based flow cytometry (reference value: 22.09 %); format: functional
[26] = molecular target: GTPase KRas (Homo sapiens) (UniProt P01116); assay: Inhibition of KRAS in human MCF7 cells assessed as reduction in phosphorylated RAF-1 E1 protein level at 35 uM measured after 24 hrs by Western blot analysis relative to control; format: cell-based
[27] = molecular target: GTPase KRas (Homo sapiens) (UniProt P01116); assay: Inhibition of KRAS in human MCF7 cells assessed as reduction in MEK1/2 9G3 protein level at 25 uM measured after 24 hrs by Western blot analysis relative to control; format: cell-based
MDA-MB-231 [28] = assay: Induction of apoptosis in human MDA-MB-231 cells assessed as late apoptotic cells at 25 uM measured after 48 hrs by annexinV-FITC/propidium iodide staining based flow cytometry (reference value: 0 %); format: functional
MDA-MB-231 [29] = assay: Induction of apoptosis in human MDA-MB-231 cells assessed as live cells at 15 uM measured after 48 hrs by annexinV-FITC/propidium iodide staining based flow cytometry (reference value: 99 %); format: functional
[30] = molecular target: GTPase KRas (Homo sapiens) (UniProt P01116); assay: Inhibition of KRAS in human MDA-MB-231 cells assessed as reduction in Pan RAS protein level at 15 uM measured after 24 hrs by Western blot analysis relative to control; format: cell-based
MCF7 [31] = assay: Induction of apoptosis in human MCF7 cells assessed as early apoptotic cells at 15 uM measured after 48 hrs by annexinV-FITC/propidium iodide staining based flow cytometry (reference value: 0.04 %); format: functional
MDA-MB-231 [32] = assay: Cell cycle arrest in human MDA-MB-231 cells assessed as accumulation at G2 phase at 25 uM measured after 48 hrs by propidium iodide/RNase staining based flow cytometry (reference value: 3.35 %); format: functional
[33] = molecular target: GTPase KRas (Homo sapiens) (UniProt P01116); assay: Inhibition of KRAS in human MDA-MB-231 cells assessed as reduction in phosphorylation of MEK measured after 24 hrs by Western blot analysis; format: cell-based

O=P(Oc1ccccc1)(Oc1ccccc1)OC1C2OC3(c4ccccc4)OC(C2O)C(O)C1O3 (stereo not given)
fold change (FC) [1]: 1.06 | Activity (MCF7 [2]): 61.44% | fold change (FC) [3]: 1.24 | fold change (FC) [4]: 0.85 | fold change (FC) [5]: 0.91 | fold change (FC) [6]: 0.86 | fold change (FC) [7]: 0.53 | fold change (FC) [8]: 0.46 | Activity (MDA-MB-231 [9]): 40.07% | fold change (FC) [10]: 1.11 | Activity (MCF7 [11]): 0.28% | Activity (MDA-MB-231 [12]): 59.93% | Activity (MCF7 [13]): Dose-dependent effect | IC50 (MCF7 [13]; MCF7, 48 h): 35.1 µM | fold change (FC) [14]: 0.93 | fold change (FC) [15]: 1.11 | Activity (MDA-MB-231 [16]): 0.39% | fold change (FC) [17]: 0.99 | fold change (FC) [18]: 0.91 | Activity (MCF7 [19]): 66.88% | fold change (FC) [20]: 0.87 | Activity (MDA-MB-231 [21]): Dose-dependent effect | Activity (MDA-MB-231 [22]): Dose-dependent effect | IC50 (MDA-MB-231 [22]; MDA-MB-231, 48 h): 22.4 µM | fold change (FC) [23]: 0.91 | fold change (FC) [24]: 1.02 | Activity (MDA-MB-231 [25]): 44.74% | fold change (FC) [26]: 1.05 | fold change (FC) [27]: 1.06 | Activity (MDA-MB-231 [28]): 0.64% | Activity (MDA-MB-231 [29]): 91.93% | fold change (FC) [30]: 1.16 | Activity (MCF7 [31]): 0.37% | Activity (MDA-MB-231 [32]): 0% | inhibition [33]: Dose-dependent effect
